Source: US6376670B1, “Quinoline-indole antimicrobial agents, uses and compositions related thereto” (Sepracor Inc., priority 1997, dated 2002)
Where two headings read alike, the source gives them in different places.

Assays:
Streptococcus pneumoniae = experiment: Determination of MIC values (BHI broth, 96 well microtiter plate); format: cell-based; details: Streptococcus pneumoniae, BHI broth, read-out: MIC S. pneu
In short: (§1)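 Here, each test series spans final concentrations of 25 to 0.39 µg/mL in BHI broth, with DMSO as diluent. Plates seeded at 10^5–10^6 cells/mL are kept at 37° C and approx. 7-10% CO2 for about 16 hours before growth is scored.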

[1] = test system: methicillin-resistant Staphylococcus aureus (MRSA); experiment: as above; format: cell-based; details: Staphylococcus aureus, MRSA, BHI broth, read-out: MIC MRSA
In short: as §1

[2] = test system: vancomycin-resistant Enterococcus spp. (VRE); experiment: as above; format: cell-based; details: Enterococcus, VRE, BHI broth, read-out: MIC VREF
In short: as §1

[3] = Acute in vivo toxicity in mice, intraperitoneal injection; details: in 10% w/v hydroxypropyl-β-cyclodextrin in 0.9% w/v saline, 5 mice
Protocol: Solutions of compounds in 10% w/v hydroxypropyl-β-cyclodextrin in 0.9% w/v saline were prepared. Doses of 40 mg/kg or 120 mg/kg of each compound were administered to mice (5 mice/compound/dose) via intraperitoneal injections. The mice […] for seven days.

[4] = 37° C., overnight (about 16 hours)
[5] = 16 h, 37° C., overnight (about 16 hours)

| SMILES | MIC (Streptococcus pneumoniae; 37° C., about 16 hours) [µg/mL] | MIC ([1]; 16 h, 37° C., about 16 hours) [µg/mL] | MIC ([2]; 16 h, 37° C., about 16 hours) [µg/mL] | MIC (Streptococcus pneumoniae; S. pneu, overnight 37° C.) [µg/mL] | MIC ([1]; overnight 37° C.) [µg/mL] | MIC ([2]; VREF, overnight 37° C.) [µg/mL] | also measured |
| --- | --- | --- | --- | --- | --- | --- | --- |
| Cn1cc(-c2cc(C(=O)NCCN)c3ccc(Cl)cc3n2)c2cc(Br)ccc21 [Example 420] | < 7 | < 7 | < 7 |  |  |  | Mice Surviving on Day 7 ([3]; 40 mg/kg intraperitoneal): 100%; Mice Surviving on Day 7 ([3]; 120 mg/kg intraperitoneal): 100% |
| Cn1cc(-c2cc(C(=O)NCCN)c3cc(C#CCN4CCCCC4)c(Cl)cc3n2)c2cc(Br)ccc21 [Example 419] | < 7 | < 7 | < 7 |  |  |  | Mice Surviving on Day 7 ([3]; 40 mg/kg intraperitoneal): 40%; Mice Surviving on Day 7 ([3]; 120 mg/kg intraperitoneal): 0% |
| COC(=O)c1cc(-c2c[nH]c3ccc(Br)cc23)nc2cc(F)ccc12 [Example 307] |  |  |  | < 7 | < 7 | < 7 | Mice Surviving on Day 7 ([3]; 40 mg/kg intraperitoneal): 100%; Mice Surviving on Day 7 ([3]; 120 mg/kg intraperitoneal): 100% |
| OCc1cc(-c2c[nH]c3ccc(Br)cc23)nc2ccc(I)cc12 [Example 452] | < 7 | < 7 | > 25 |  |  |  |  |
| NC1CCCCC1NC(=O)c1cc(-c2c[nH]c3ccc(Br)cc23)nc2ccc(I)cc12 (stereo not drawn) [Example 112] |  |  |  |  |  |  | MIC (Streptococcus pneumoniae; [4]): < 7 µg/mL; MIC [1, 5]: < 7 µg/mL; MIC [2, 5]: < 7 µg/mL |
| Cc1cccc2ccc(-c3c[nH]c4ccc(Cl)cc34)nc12 [Example 427] | > 25 | > 25 | > 25 |  |  |  |  |
| NCC1CCCC(CNC(=O)c2cc(-c3c[nH]c4ccc(Br)cc34)nc3c(F)cccc23)C1 (stereo not drawn) [Example 259] |  |  |  | < 7 | < 7 | < 7 |  |
| NCc1cc(-c2c[nH]c3ccc(Br)cc23)nc2cc(Cl)ccc12 [Example 511] | < 7 | < 7 | < 7 |  |  |  |  |
| NCc1ccc(CNC(=O)c2cc(-c3c[nH]c4ccc(Br)cc34)nc3ccc(-c4ccccc4)cc23)cc1 [Example 96] |  |  |  |  |  |  | MIC (Streptococcus pneumoniae; [4]): < 7 µg/mL; MIC [1, 5]: < 7 µg/mL; MIC [2, 5]: < 7 µg/mL |
| Cn1cc(-c2cc(C(=O)NCCN)c3cc(C#CCNCCc4ccc(Cl)cc4)ccc3n2)c2cc(Br)ccc21 [Example 400] | < 7 | < 7 | < 7 |  |  |  |  |
| O=C(NCc1nc2ccccc2[nH]1)c1cc(-c2c[nH]c3ccc(Br)cc23)nc2ccc(C(F)(F)F)cc12 [Example 172] |  |  |  |  |  |  | MIC (Streptococcus pneumoniae; [4]): < 7 µg/mL; MIC [1, 5]: < 7 µg/mL; MIC [2, 5]: > 25 µg/mL |
| Cc1ccc2nc(-c3c[nH]c4cc(Cl)ccc34)ccc2c1 [Example 436] | < 7 | < 7 | > 25 |  |  |  |  |
| Cn1cc(-c2cc(C(=O)NCC3CCC(CN)CC3)c3cc(Cl)ccc3n2)c2cc(Br)ccc21 (stereo not drawn) [Example 368] |  |  |  | < 7 | < 7 | < 7 |  |
| Clc1ccc2c(-c3cc(Cl)c4ccccc4n3)c[nH]c2c1 [Example 343] |  |  |  | < 7 | < 7 | > 25 |  |
| NCc1ccc(CNC(=O)c2cc(-c3c[nH]c4ccc(Br)cc34)nc3ccc(C#CCN4CCc5ccccc5C4)cc23)cc1 [Example 240] |  |  |  | > 25 | < 7 | < 25 |  |
| NCc1ccc(/C=C/c2cc(-c3c[nH]c4ccc(Br)cc34)nc3cc(Br)ccc23)cc1 [Example 374] |  |  |  | < 7 | < 7 | < 7 |  |
| NCc1ccc(CNC(=O)c2cc(-c3c[nH]c4ccc(Br)cc34)nc3ccc(C#CCN4CCNCC4)cc23)cc1 [Example 208] |  |  |  | < 25 | < 7 | < 25 |  |
| NCc1cccc(CNC(=O)c2cc(-c3cc4cc(Cl)ccc4[nH]3)nc3cc(I)ccc23)c1 [Example 311] |  |  |  | > 25 | > 25 | > 25 |  |
